{"source": "paper PMC10882719", "about": "(Frontiers in Neuroscience, 2024)", "type_in_all_cases": "cell-based", "key": {"168 GPCRs [1]": {"molecular_target": "T1, 168 GPCRs (Homo sapiens, UniProt P08908)", "T1 construct": "host or cells: PathHunter cell lines", "T1 sequence (P08908 1-422)": "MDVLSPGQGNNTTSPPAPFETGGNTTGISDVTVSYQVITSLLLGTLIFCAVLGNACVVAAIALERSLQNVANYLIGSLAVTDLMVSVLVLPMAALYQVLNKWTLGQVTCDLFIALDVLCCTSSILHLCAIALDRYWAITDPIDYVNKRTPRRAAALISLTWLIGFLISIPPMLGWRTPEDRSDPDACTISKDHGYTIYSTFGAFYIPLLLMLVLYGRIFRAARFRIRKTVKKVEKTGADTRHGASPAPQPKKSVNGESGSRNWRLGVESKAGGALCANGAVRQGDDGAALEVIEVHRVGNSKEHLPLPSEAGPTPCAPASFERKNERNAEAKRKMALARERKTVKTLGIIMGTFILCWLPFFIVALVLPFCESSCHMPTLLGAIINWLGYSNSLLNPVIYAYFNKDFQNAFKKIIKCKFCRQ", "conditions": "HTR1A"}, "168 GPCRs [2]": {"molecular_target": "T2, 168 GPCRs (Homo sapiens, UniProt P0DMS8)", "T2 construct": "host or cells: PathHunter cell lines", "T2 sequence (P0DMS8 1-318)": "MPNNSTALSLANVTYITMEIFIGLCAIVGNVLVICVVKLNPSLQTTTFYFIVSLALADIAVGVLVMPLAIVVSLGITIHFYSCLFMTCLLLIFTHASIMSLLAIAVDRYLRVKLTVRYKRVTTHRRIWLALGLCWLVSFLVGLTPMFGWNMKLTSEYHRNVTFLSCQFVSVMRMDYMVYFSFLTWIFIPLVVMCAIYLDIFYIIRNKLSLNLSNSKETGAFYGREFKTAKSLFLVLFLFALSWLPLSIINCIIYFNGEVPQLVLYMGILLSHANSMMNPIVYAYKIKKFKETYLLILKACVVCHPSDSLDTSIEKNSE"}, "168 GPCRs [3]": {"molecular_target": "T3, 168 GPCRs (Homo sapiens, UniProt P25116)", "T3 construct": "host or cells: PathHunter cell lines", "T3 sequence (P25116 22-425)": "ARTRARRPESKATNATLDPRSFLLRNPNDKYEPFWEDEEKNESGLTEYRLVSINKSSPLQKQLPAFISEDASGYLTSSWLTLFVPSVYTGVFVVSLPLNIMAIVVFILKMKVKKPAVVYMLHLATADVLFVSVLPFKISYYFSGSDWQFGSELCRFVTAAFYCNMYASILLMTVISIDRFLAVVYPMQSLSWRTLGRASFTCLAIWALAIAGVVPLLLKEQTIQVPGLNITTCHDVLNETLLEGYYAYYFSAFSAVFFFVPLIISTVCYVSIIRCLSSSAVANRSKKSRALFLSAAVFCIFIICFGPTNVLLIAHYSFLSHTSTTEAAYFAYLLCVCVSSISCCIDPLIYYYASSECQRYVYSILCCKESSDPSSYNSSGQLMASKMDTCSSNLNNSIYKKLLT", "conditions": "F2R"}, "168 GPCRs [4]": {"molecular_target": "T4, 168 GPCRs (Homo sapiens, UniProt P32241)", "T4 construct": "host or cells: PathHunter cell lines", "T4 sequence (P32241 31-457)": "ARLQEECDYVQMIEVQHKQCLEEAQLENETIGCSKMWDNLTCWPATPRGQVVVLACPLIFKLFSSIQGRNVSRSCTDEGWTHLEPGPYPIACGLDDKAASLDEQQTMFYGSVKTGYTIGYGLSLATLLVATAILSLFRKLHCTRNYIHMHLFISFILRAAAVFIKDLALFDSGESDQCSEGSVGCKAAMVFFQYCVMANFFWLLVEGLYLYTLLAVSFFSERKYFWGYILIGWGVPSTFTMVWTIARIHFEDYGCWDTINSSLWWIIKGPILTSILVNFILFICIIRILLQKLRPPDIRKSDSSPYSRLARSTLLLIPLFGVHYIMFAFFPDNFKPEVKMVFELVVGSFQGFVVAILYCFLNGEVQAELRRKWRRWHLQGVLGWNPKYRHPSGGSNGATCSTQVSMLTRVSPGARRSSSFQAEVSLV", "conditions": "VIPR1"}, "168 GPCRs [5]": {"molecular_target": "T5, 168 GPCRs (Homo sapiens, UniProt P35346)", "T5 construct": "host or cells: PathHunter cell lines", "T5 sequence (P35346 whole entry)": "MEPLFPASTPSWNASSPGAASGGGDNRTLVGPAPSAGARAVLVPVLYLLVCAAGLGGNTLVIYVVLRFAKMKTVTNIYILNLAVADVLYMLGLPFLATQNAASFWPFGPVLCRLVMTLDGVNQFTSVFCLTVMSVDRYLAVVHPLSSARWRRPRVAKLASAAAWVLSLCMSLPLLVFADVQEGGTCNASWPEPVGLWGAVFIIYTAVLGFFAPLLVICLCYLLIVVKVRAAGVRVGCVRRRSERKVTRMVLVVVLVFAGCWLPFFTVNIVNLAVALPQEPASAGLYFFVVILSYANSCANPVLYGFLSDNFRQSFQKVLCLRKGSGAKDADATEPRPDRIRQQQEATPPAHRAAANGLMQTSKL", "conditions": "SSTR5"}, "168 GPCRs [6]": {"molecular_target": "T6, 168 GPCRs (Homo sapiens, UniProt P49190)", "T6 construct": "host or cells: PathHunter cell lines", "T6 sequence (P49190 25-550)": "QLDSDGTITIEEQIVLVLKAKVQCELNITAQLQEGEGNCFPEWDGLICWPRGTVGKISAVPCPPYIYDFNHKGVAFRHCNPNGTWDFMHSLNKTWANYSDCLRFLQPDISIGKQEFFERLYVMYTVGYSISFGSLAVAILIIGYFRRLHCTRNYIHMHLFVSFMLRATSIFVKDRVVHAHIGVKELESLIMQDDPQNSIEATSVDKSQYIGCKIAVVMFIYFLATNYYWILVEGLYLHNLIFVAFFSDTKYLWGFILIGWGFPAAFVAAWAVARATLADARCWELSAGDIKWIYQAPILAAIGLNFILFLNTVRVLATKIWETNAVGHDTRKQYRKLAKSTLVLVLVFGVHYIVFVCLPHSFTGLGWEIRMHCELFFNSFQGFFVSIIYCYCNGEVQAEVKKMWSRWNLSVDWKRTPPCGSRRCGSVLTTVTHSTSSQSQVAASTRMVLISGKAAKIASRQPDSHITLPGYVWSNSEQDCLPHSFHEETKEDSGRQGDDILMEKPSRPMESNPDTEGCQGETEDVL", "conditions": "PTHR2"}, "168 GPCRs [7]": {"molecular_target": "T7, 168 GPCRs (Homo sapiens, UniProt Q9H3N8)", "T7 construct": "host or cells: PathHunter cell lines", "T7 sequence (Q9H3N8 whole entry)": "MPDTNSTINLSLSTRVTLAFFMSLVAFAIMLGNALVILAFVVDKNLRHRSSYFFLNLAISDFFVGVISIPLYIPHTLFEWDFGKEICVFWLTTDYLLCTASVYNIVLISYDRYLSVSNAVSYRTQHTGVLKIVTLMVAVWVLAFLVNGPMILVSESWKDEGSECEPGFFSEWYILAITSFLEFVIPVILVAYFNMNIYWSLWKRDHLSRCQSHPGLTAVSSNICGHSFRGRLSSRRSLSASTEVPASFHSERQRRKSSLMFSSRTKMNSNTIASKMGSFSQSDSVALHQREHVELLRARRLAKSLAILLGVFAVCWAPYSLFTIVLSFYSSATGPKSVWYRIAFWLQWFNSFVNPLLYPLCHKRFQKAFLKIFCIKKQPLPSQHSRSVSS"}, "168 GPCRs [8]": {"molecular_target": "T8, 168 GPCRs (Homo sapiens, UniProt Q9Y5N1)", "T8 construct": "host or cells: PathHunter cell lines", "T8 sequence (Q9Y5N1 whole entry)": "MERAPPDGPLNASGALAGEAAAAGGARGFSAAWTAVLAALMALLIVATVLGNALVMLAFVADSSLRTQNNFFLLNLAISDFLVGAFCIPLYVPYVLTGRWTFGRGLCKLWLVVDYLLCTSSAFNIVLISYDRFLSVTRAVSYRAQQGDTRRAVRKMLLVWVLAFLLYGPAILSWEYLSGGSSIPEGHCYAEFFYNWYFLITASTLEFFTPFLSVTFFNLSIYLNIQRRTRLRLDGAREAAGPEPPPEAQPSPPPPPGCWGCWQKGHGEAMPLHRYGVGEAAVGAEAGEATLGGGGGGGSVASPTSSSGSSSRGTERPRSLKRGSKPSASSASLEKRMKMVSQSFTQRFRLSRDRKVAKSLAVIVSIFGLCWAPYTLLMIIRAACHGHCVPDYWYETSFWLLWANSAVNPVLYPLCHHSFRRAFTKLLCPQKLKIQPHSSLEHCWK"}}, "note": "Read-outs that look alike come from different tables or passages of the source.", "data": [{"smiles": "CNC(C)C(=O)c1ccc2c(c1)OCO2", "note": "(stereo not shown) [methylone]", "values": [{"measurement": "% Agonist Activity", "setting": "168 GPCRs [1]; 1 uM", "value": 0.8, "unit": "%"}, {"measurement": "% Antagonist Activity", "setting": "168 GPCRs [1]; 1 uM", "value": -5.2, "unit": "%"}, {"measurement": "% Agonist Activity", "setting": "168 GPCRs [1]; 10 uM", "value": -0.1, "unit": "%"}, {"measurement": "% Antagonist Activity", "setting": "168 GPCRs [1]; 10 uM", "value": -6.4, "unit": "%"}, {"measurement": "% Agonist Activity", "setting": "168 GPCRs [2]; ADORA3, 1 uM", "value": -4.5, "unit": "%"}, {"measurement": "% Antagonist Activity", "setting": "168 GPCRs [2]; ADORA3, 1 uM", "value": 11.3, "unit": "%"}, {"measurement": "% Agonist Activity", "setting": "168 GPCRs [2]; ADORA3, 10 uM", "value": -5.3, "unit": "%"}, {"measurement": "% Antagonist Activity", "setting": "168 GPCRs [2]; ADORA3, 10 uM", "value": 7.7, "unit": "%"}, {"measurement": "% Agonist Activity", "setting": "168 GPCRs [3]; 1 uM", "value": -2.5, "unit": "%"}, {"measurement": "% Antagonist Activity", "setting": "168 GPCRs [3]; 1 uM", "value": -11.6, "unit": "%"}, {"measurement": "% Agonist Activity", "setting": "168 GPCRs [3]; 10 uM", "value": 0.2, "unit": "%"}, {"measurement": "% Antagonist Activity", "setting": "168 GPCRs [3]; 10 uM", "value": -11.4, "unit": "%"}, {"measurement": "% Agonist Activity", "setting": "168 GPCRs [4]; Conc 1 uM", "value": 0.3, "unit": "%"}, {"measurement": "% Antagonist Activity", "setting": "168 GPCRs [4]; Conc 1 uM", "value": -0.7, "unit": "%"}, {"measurement": "% Agonist Activity", "setting": "168 GPCRs [4]; Conc 10 uM", "value": 0.6, "unit": "%"}, {"measurement": "% Antagonist Activity", "setting": "168 GPCRs [4]; Conc 10 uM", "value": 5.3, "unit": "%"}, {"measurement": "% Agonist Activity", "setting": "168 GPCRs [5]; Conc 1 uM", "value": -2.4, "unit": "%"}, {"measurement": "% Antagonist Activity", "setting": "168 GPCRs [5]; Conc 1 uM", "value": 14.7, "unit": "%"}, {"measurement": "% Agonist Activity", "setting": "168 GPCRs [5]; Conc 10 uM", "value": -1.3, "unit": "%"}, {"measurement": "% Antagonist Activity", "setting": "168 GPCRs [5]; Conc 10 uM", "value": 5.7, "unit": "%"}, {"measurement": "% Agonist Activity", "setting": "168 GPCRs [6]; Conc 1 uM", "value": -0.6, "unit": "%"}, {"measurement": "% Antagonist Activity", "setting": "168 GPCRs [6]; Conc 1 uM", "value": -1, "unit": "%"}, {"measurement": "% Agonist Activity", "setting": "168 GPCRs [6]; Conc 10 uM", "value": -0.5, "unit": "%"}, {"measurement": "% Antagonist Activity", "setting": "168 GPCRs [6]; Conc 10 uM", "value": -0.2, "unit": "%"}, {"measurement": "% Agonist Activity", "setting": "168 GPCRs [7]; HRH4, 1 uM", "value": 8.6, "unit": "%"}, {"measurement": "% Antagonist Activity", "setting": "168 GPCRs [7]; HRH4, 1 uM", "value": -11.6, "unit": "%"}, {"measurement": "% Agonist Activity", "setting": "168 GPCRs [7]; HRH4, 10 uM", "value": 9, "unit": "%"}, {"measurement": "% Antagonist Activity", "setting": "168 GPCRs [7]; HRH4, 10 uM", "value": -14, "unit": "%"}, {"measurement": "% Agonist Activity", "setting": "168 GPCRs [8]; HRH3, 1 uM", "value": -3.4, "unit": "%"}, {"measurement": "% Antagonist Activity", "setting": "168 GPCRs [8]; HRH3, 1 uM", "value": 9.5, "unit": "%"}, {"measurement": "% Agonist Activity", "setting": "168 GPCRs [8]; HRH3, 10 uM", "value": -3.7, "unit": "%"}, {"measurement": "% Antagonist Activity", "setting": "168 GPCRs [8]; HRH3, 10 uM", "value": 5.8, "unit": "%"}]}, {"smiles": "CNC(C)Cc1ccc2c(c1)OCO2", "note": "(stereo not shown) [MDMA, 3,4-Methylenedioxy methamphetamine, reference compound]", "values": [{"measurement": "% Agonist Activity", "setting": "168 GPCRs [1]; 1 uM", "value": 1.1, "unit": "%"}, {"measurement": "% Antagonist Activity", "setting": "168 GPCRs [1]; 1 uM", "value": -5.1, "unit": "%"}, {"measurement": "% Agonist Activity", "setting": "168 GPCRs [1]; 10 uM", "value": 2.4, "unit": "%"}, {"measurement": "% Antagonist Activity", "setting": "168 GPCRs [1]; 10 uM", "value": -0.9, "unit": "%"}, {"measurement": "% Agonist Activity", "setting": "168 GPCRs [2]; ADORA3, 1 uM", "value": 0.7, "unit": "%"}, {"measurement": "% Antagonist Activity", "setting": "168 GPCRs [2]; ADORA3, 1 uM", "value": -15.4, "unit": "%"}, {"measurement": "% Agonist Activity", "setting": "168 GPCRs [2]; ADORA3, 10 uM", "value": 0.6, "unit": "%"}, {"measurement": "% Antagonist Activity", "setting": "168 GPCRs [2]; ADORA3, 10 uM", "value": -11.5, "unit": "%"}, {"measurement": "% Agonist Activity", "setting": "168 GPCRs [3]; 1 uM", "value": -0.7, "unit": "%"}, {"measurement": "% Antagonist Activity", "setting": "168 GPCRs [3]; 1 uM", "value": 1.2, "unit": "%"}, {"measurement": "% Agonist Activity", "setting": "168 GPCRs [3]; 10 uM", "value": -1.2, "unit": "%"}, {"measurement": "% Antagonist Activity", "setting": "168 GPCRs [3]; 10 uM", "value": 5.9, "unit": "%"}, {"measurement": "% Agonist Activity", "setting": "168 GPCRs [4]; Conc 1 uM", "value": -0.8, "unit": "%"}, {"measurement": "% Antagonist Activity", "setting": "168 GPCRs [4]; Conc 1 uM", "value": 5.7, "unit": "%"}, {"measurement": "% Agonist Activity", "setting": "168 GPCRs [4]; Conc 10 uM", "value": -0.6, "unit": "%"}, {"measurement": "% Antagonist Activity", "setting": "168 GPCRs [4]; Conc 10 uM", "value": 5.1, "unit": "%"}, {"measurement": "% Agonist Activity", "setting": "168 GPCRs [5]; Conc 1 uM", "value": -2.5, "unit": "%"}, {"measurement": "% Antagonist Activity", "setting": "168 GPCRs [5]; Conc 1 uM", "value": 1.6, "unit": "%"}, {"measurement": "% Agonist Activity", "setting": "168 GPCRs [5]; Conc 10 uM", "value": -3.2, "unit": "%"}, {"measurement": "% Antagonist Activity", "setting": "168 GPCRs [5]; Conc 10 uM", "value": -2, "unit": "%"}, {"measurement": "% Agonist Activity", "setting": "168 GPCRs [6]; Conc 1 uM", "value": 0.2, "unit": "%"}, {"measurement": "% Antagonist Activity", "setting": "168 GPCRs [6]; Conc 1 uM", "value": 2.9, "unit": "%"}, {"measurement": "% Agonist Activity", "setting": "168 GPCRs [6]; Conc 10 uM", "value": 0.5, "unit": "%"}, {"measurement": "% Antagonist Activity", "setting": "168 GPCRs [6]; Conc 10 uM", "value": 7, "unit": "%"}, {"measurement": "% Agonist Activity", "setting": "168 GPCRs [7]; HRH4, 1 uM", "value": 1.9, "unit": "%"}, {"measurement": "% Antagonist Activity", "setting": "168 GPCRs [7]; HRH4, 1 uM", "value": 14.5, "unit": "%"}, {"measurement": "% Agonist Activity", "setting": "168 GPCRs [7]; HRH4, 10 uM", "value": 3.1, "unit": "%"}, {"measurement": "% Antagonist Activity", "setting": "168 GPCRs [7]; HRH4, 10 uM", "value": 14.5, "unit": "%"}, {"measurement": "% Agonist Activity", "setting": "168 GPCRs [8]; HRH3, 1 uM", "value": -3.1, "unit": "%"}, {"measurement": "% Antagonist Activity", "setting": "168 GPCRs [8]; HRH3, 1 uM", "value": 6.2, "unit": "%"}, {"measurement": "% Agonist Activity", "setting": "168 GPCRs [8]; HRH3, 10 uM", "value": -2.6, "unit": "%"}, {"measurement": "% Antagonist Activity", "setting": "168 GPCRs [8]; HRH3, 10 uM", "value": 22.6, "unit": "%"}]}]}
